Where a name gives a salt, the structure may show the parent alone. One block for each compound: values may come before it.
Assays:
ATM = ATM (Homo sapiens (Human), UniProt Q13315); test: ATM in Cell Western Assay (pKAP1 in etoposide-treated MCF-7 cells); assay type: cell-based; details: pKAP1 in etoposide-treated MCF-7 cells
How it was run: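 After paraformaldehyde fixation and Triton X-100 permeabilization, immunostained plates were read by infrared scanning (ODYSSEY CLx). Compound was given as 10 doses, 3-fold dilutions from a 1 μM final top concentration.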

DNA-PK = DNA-PK (Homo sapiens (Human), UniProt P78527); test: DNA-PK Enzyme-Linked Immunosorbent Assay (phosphorylation of GST-p53 (1-101) peptide); assay type: biochemical; details: ELISA, 20 μM ATP
How it was run: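 Inhibition measured by 450 nm absorbance after HRP/TMB detection of phospho-Ser15 on immobilized GST-p53 (1-101). The kinase reaction used 0.1 μg/mL DNA-PK and 20 μM ATP, 1 h at 25 °C. Ten 3-fold compound dilutions, top final concentration 100 nM.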

ATM, sequence (Q13315 whole entry): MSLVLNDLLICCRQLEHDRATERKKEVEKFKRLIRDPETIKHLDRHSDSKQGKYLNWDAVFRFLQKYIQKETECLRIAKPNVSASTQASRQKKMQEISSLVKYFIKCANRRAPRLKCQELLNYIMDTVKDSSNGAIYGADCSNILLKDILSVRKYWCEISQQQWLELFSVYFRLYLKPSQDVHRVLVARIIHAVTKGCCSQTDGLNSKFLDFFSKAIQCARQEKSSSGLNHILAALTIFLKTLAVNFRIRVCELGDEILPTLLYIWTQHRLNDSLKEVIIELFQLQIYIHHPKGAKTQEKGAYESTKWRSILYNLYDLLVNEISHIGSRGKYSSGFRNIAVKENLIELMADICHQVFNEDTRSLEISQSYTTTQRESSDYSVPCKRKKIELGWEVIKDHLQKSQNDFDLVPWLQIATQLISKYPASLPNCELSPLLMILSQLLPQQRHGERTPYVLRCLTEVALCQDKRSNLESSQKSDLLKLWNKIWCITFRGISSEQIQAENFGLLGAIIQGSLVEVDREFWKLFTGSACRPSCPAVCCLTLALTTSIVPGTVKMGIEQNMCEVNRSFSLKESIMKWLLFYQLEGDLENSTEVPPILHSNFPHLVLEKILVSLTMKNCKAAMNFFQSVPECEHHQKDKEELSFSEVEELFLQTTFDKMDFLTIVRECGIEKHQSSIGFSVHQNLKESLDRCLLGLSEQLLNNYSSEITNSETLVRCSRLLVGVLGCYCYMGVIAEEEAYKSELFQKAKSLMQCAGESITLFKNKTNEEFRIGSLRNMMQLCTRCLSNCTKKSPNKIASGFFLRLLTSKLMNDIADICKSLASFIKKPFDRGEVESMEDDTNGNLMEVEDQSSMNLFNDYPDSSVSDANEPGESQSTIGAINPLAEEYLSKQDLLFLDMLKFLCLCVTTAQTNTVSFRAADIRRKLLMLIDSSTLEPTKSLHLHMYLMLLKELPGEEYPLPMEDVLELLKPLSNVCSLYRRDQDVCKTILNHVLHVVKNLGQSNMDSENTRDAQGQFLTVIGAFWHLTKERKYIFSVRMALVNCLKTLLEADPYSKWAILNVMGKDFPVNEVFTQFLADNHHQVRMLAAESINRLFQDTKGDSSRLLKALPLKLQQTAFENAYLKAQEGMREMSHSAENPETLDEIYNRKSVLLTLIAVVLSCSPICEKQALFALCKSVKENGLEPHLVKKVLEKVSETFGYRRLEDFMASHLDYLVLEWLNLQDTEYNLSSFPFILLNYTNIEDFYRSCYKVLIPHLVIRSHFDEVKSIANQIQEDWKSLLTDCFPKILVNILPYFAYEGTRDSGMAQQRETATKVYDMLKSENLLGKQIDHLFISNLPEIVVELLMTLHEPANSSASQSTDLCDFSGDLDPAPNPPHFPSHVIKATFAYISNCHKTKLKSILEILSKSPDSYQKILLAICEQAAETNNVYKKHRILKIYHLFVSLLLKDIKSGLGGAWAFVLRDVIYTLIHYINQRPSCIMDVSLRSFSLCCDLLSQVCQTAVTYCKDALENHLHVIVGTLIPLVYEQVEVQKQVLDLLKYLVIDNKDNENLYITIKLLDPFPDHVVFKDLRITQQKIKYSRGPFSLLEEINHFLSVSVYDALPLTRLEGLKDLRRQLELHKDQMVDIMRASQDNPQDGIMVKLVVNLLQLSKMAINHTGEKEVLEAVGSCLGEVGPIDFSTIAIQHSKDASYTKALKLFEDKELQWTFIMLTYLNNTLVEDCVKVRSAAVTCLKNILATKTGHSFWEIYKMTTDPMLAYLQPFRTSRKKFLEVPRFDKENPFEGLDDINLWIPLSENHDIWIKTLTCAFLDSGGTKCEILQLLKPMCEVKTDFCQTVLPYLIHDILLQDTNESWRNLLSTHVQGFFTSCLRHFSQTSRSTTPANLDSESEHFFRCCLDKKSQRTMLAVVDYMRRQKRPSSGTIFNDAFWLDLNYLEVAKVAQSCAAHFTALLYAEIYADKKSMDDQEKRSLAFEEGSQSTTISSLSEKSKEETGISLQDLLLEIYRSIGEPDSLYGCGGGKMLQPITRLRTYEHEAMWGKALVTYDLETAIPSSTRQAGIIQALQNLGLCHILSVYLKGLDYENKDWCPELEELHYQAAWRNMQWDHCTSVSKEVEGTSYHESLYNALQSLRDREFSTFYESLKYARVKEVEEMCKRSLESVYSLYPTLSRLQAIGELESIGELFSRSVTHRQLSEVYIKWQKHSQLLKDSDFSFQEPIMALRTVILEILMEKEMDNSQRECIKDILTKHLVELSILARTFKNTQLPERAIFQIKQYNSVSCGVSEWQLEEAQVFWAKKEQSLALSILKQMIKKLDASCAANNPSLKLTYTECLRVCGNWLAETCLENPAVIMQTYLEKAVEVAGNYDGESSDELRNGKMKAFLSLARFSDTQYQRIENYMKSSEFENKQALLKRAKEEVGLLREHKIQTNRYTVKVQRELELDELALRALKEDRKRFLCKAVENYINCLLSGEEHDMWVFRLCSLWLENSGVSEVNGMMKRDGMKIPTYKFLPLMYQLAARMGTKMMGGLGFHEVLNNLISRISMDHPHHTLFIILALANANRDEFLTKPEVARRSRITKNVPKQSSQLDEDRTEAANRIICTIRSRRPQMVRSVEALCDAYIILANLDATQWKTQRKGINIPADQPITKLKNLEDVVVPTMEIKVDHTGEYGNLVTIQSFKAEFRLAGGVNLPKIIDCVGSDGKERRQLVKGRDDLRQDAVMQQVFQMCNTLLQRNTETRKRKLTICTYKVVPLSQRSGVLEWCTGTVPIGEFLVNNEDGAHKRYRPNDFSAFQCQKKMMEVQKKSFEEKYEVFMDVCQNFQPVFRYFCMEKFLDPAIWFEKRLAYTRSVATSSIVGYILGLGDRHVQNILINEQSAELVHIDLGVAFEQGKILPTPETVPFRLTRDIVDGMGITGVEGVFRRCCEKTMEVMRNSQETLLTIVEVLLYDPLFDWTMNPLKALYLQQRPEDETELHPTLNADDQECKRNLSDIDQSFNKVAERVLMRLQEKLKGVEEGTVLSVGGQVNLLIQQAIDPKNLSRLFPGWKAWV

Structure (SMILES): CO[C@H]1C[C@]2(C1)C(=O)N(C)c1cnc3cc(F)c(-c4cnc(N5CCC(N6CCCCC6)CC5)c(NS(C)(=O)=O)c4)cc3c12 [Example 391, cis-N-(2-([1,4′-Bipiperidin]-1′-yl)-5-(7′-fluoro-3-methoxy-3′-methyl-2′-oxo-2′,3′-dihydrospiro[cyclobutane-1,1′-pyrrolo[2,3-c]quinolin]-8′-yl)pyridin-3-yl)methanesulfonamide]
IC50 (ATM): 1 to 100 nM | IC50 (DNA-PK): 1 to 100 nM

Structure (SMILES): CO[C@H]1C[C@@]2(C1)C(=O)N(C)c1cnc3cc(F)c(-c4cnc(N5CCC(N6CCCCC6)CC5)c(NS(C)(=O)=O)c4)cc3c12 [Example 392]
IC50 (ATM): 1 to 100 nM | IC50 (DNA-PK): 1 to 100 nM

Structure (SMILES): CC(C)NCCOc1ncc(-c2cc3c(cc2F)ncc2c3[C@]3(C[C@H](Oc4ccccc4)C3)C(=O)N2C)cc1NS(C)(=O)=O [Example 400, cis-N-(5-(7′-Fluoro-3′-methyl-2′-oxo-3-phenoxy-2′,3′-dihydrospiro[cyclobutane-1,1′-pyrrolo[2,3-c]quinolin]-8′-yl)-2-(2-(isopropylamino)ethoxy)pyridin-3-yl)methanesulfonamide]
IC50 (ATM): 0.5 to 1 nM | IC50 (DNA-PK): 1 to 100 nM

Structure (SMILES): CC(C)NCCOc1ncc(-c2cc3c(cc2F)ncc2c3[C@]3(C[C@H](Oc4ccccc4)C3)C(=O)N2C)cc1NS(=O)(=O)N(C)C [Example 402, cis-8′-{5-[(Dimethylsulfamoyl)amino]-6-{2-[(propan-2-ylamino]ethoxy}pyridine-3-yl}-7′-fluoro-3′-methyl-3-phenoxy-2′,3′-dihydrospiro[cyclobutane-1,1′-pyrrolo[2,3-c]quinoline]-2′-one hydrochloride]
IC50 (ATM): 1 to 100 nM | IC50 (DNA-PK): 1 to 100 nM

Structure (SMILES): CC(C)NCCOc1ncc(-c2cc3c(cc2F)ncc2c3[C@]3(C[C@H](COc4ccccc4)C3)C(=O)N2C)cc1NS(C)(=O)=O [Example 409, cis-N-(5-(7′-Fluoro-3′-methyl-2′-oxo-3-(phenoxymethyl)-2′,3′-dihydrospiro[cyclobutane-1,1′-pyrrolo[2,3-c]quinolin]-8′-yl)-2-(2-(isopropylamino)ethoxy)pyridin-3-yl)methanesulfonamide]
IC50 (ATM): 1 to 100 nM | IC50 (DNA-PK): < 0.5 nM

Structure (SMILES): CC(C)NCCOc1ncc(-c2cc3c(cc2F)ncc2c3[C@]3(C[C@H](COC(C)C)C3)C(=O)N2C)cc1NS(=O)(=O)C(C)C [Example 412, cis-N-(5-(7′-Fluoro-3-(isopropoxymethyl)-3′-methyl-2′-oxo-2′,3′-dihydrospiro[cyclobutane-1,1′-pyrrolo[2,3-c]quinolin]-8′-yl)-2-(2-(isopropylamino)ethoxy)pyridin-3-yl)propane-2-sulfonamide]
IC50 (ATM): 1 to 100 nM | IC50 (DNA-PK): 1 to 100 nM

Structure (SMILES): CC(C)NCCOc1ncc(-c2cc3c(cc2F)ncc2c3[C@]3(C[C@H](c4ccccc4)C3)C(=O)N2C)cc1NS(C)(=O)=O [Example 414, cis-N-(5-(7′-Fluoro-3′-methyl-2′-oxo-3-phenyl-2′,3′-dihydrospiro[cyclobutane-1,1′-pyrrolo[2,3-c]quinolin]-8′-yl)-2-(2-(isopropylamino)ethoxy)pyridin-3-yl)methanesulfonamide hydrochloride]
IC50 (ATM): 1 to 100 nM | IC50 (DNA-PK): 1 to 100 nM

Structure (SMILES): CC(C)NCCOc1ncc(-c2cc3c(cc2F)ncc2c3[C@]3(C[C@@H](c4ccccc4)C3)C(=O)N2C)cc1NS(C)(=O)=O [Example 415, trans-N-(5-(7′-Fluoro-3′-methyl-2′-oxo-3-phenyl-2′,3′-dihydrospiro[cyclobulane-1,1′-pyrrolo[2,3-c]quinolin]-8′-yl)-2-(2-(isopropylamino)ethoxy)pyridin-3-yl)methanesulfonamide hydrochloride]
IC50 (ATM): 1 to 100 nM | IC50 (DNA-PK): 1 to 100 nM

Structure (SMILES): CC(C)NCCOc1ncc(-c2cc3c(cc2F)ncc2c3[C@]3(C[C@H](c4ccc(Cl)cc4)C3)C(=O)N2C)cc1NS(C)(=O)=O [Example 416, cis-N-(5-(3-(4-Chlorophenyl)-7′-fluoro-3′-methyl-2′-oxo-2′,3′-dihydrospiro[cyclobutane-1,1′-pyrrolo[2,3-c]quinolin]-8′-yl)-2-(2-(isopropylamino)ethoxy)pyridin-3-yl)methanesulfonamide]
IC50 (ATM): 1 to 100 nM | IC50 (DNA-PK): 1 to 100 nM

Structure (SMILES): CC(C)NCCOc1ncc(-c2cc3c(cc2F)ncc2c3[C@]3(C[C@@H](c4ccc(Cl)cc4)C3)C(=O)N2C)cc1NS(C)(=O)=O [Example 417, trans-N-(5-(3-(4-Chlorophenyl)-7′ fluoro-3′-methyl-2′-oxo-2′,3′-dihydrospiro[cyclobutane-1,1′-pyrrolo[2,3-c]quinolin]-8′-yl)-2-(2-(isopropylamino)ethoxy)pyridin-3-yl)methanesulfonamide]
IC50 (ATM): > 100 nM | IC50 (DNA-PK): 1 to 100 nM

Structure (SMILES): CC(C)NCCOc1ncc(-c2cc3c(cc2F)ncc2c3[C@]3(C[C@H](c4cccc(Cl)c4)C3)C(=O)N2C)cc1NS(C)(=O)=O [Example 418, cis-N-(5-(3-(3-Chlorophenyl)-7′-fluoro-3′-methyl-2′-oxo-2′,3′-dihydrospiro[cyclobutane-1,1′-pyrrolo[2,3-c]quinolin]-8′-yl)-2-(2-(isopropylamino)ethoxy)pyridin-3-yl)methanesulfonamide]
IC50 (ATM): 1 to 100 nM | IC50 (DNA-PK): 1 to 100 nM

Structure (SMILES): CC(C)NCCOc1ncc(-c2cc3c(cc2F)ncc2c3[C@]3(C[C@@H](c4cccc(Cl)c4)C3)C(=O)N2C)cc1NS(C)(=O)=O [Example 419, trans-N-(5-(3-(3-Chlorophenyl)-7′-fluoro-3′-methyl-2′-oxo-2′,3′-dihydrospiro[cyclobutane-1,1′-pyrrolo[2,3-c]quinolin]-8′-yl)-2-(2-(isopropylamino)ethoxy)pyridin-3-yl)methanesulfonamide]
IC50 (ATM): > 100 nM | IC50 (DNA-PK): 1 to 100 nM

Further lines, results first:

IC50 (ATM): 1 to 100 nM | IC50 (DNA-PK): 1 to 100 nM
Structure (SMILES): CO[C@H]1C[C@@]2(C1)C(=O)N(C)c1cnc3cc(F)c(-c4cnc(OCCNC(C)C)c(NS(=O)(=O)C5CC5)c4)cc3c12 [Example 388, trans-N-{5-(7′-Fluoro-3-methoxy-3 methyl-2′-oxo-2′,3′-dihydrospiro [cyclobutane-1,1′-pyrrolo[2,3-c]quinolin]-8′-yl)-2-(2-(isopropylamino)ethoxy)pyridin-3-yl)cyclopropanesulfonamide]

IC50 (ATM): 1 to 100 nM | IC50 (DNA-PK): 1 to 100 nM
Structure (SMILES): CO[C@H]1C[C@]2(C1)C(=O)N(C)c1cnc3cc(F)c(-c4cnc(OCCNC(C)C)c(NS(=O)(=O)N(C)C)c4)cc3c12 [Example 389, cis-8′-{5-[(Dimethylsulfamoyl)amino]-6-{2-[(propan-2-yl)amino]ethoxy}pyridine-3-yl}-7′-fluoro-3-Methoxy-3′-methyl-2′,3′-dihydrospiro[cyclobutane-1,1′-pyrrolo[2,3-c]quinoline]-2′-one]

IC50 (ATM): 1 to 100 nM | IC50 (DNA-PK): 1 to 100 nM
Structure (SMILES): CO[C@H]1C[C@@]2(C1)C(=O)N(C)c1cnc3cc(F)c(-c4cnc(OCCNC(C)C)c(NS(=O)(=O)N(C)C)c4)cc3c12 [Example 390]

IC50 (ATM): 1 to 100 nM | IC50 (DNA-PK): 1 to 100 nM
Structure (SMILES): CCO[C@H]1C[C@]2(C1)C(=O)N(C)c1cnc3cc(F)c(-c4cnc(OCCNC(C)C)c(NS(C)(=O)=O)c4)cc3c12 [Example 393, cis-N-(5-(3-Ethoxy-7′-fluoro-3′-methyl-2′-oxo-2′,3′-dihydrospiro[cyclobutane-1,1′-pyrrolo[2,3-c]quinolin]-8′-yl)-2-(2-(isopropylamino)ethoxy)pyridin-3-yl) methanesulfonamide]

IC50 (ATM): 1 to 100 nM | IC50 (DNA-PK): 1 to 100 nM
Structure (SMILES): CC(C)NCCOc1ncc(-c2cc3c(cc2F)ncc2c3[C@]3(C[C@H](OC(C)C)C3)C(=O)N2C)cc1NS(C)(=O)=O [Example 395, cis-N-(5-(7′-Fluoro-3-isopropoxy-3′-methyl-2′-oxo-2′,3′-dihydrospiro[cyclobutane-1,1′-pyrrolo[2,3-c]quinolin]-8′-yl)-2-(2-(isopropylamino)ethoxy)pyridin-3-yl)methanesulfonamide]

IC50 (ATM): 1 to 100 nM | IC50 (DNA-PK): < 0.5 nM
Structure (SMILES): CC(C)NCCOc1ncc(-c2cc3c(cc2F)ncc2c3[C@]3(C[C@H](OC(C)c4ccccc4)C3)C(=O)N2C)cc1NS(C)(=O)=O (stereo partly drawn) [Example 397, cis-N-(5-(7′-Fluoro-3′-methyl-2′-oxo-3-(1-phenylethoxy)-2′,3′-dihydrospiro[cyclobutane-1,1′-pyrrolo[2,3-c]quinolin]-8′-yl)-2-(2-(isopropylamino)ethoxy)pyridin-3-yl)methanesulfonamide]

IC50 (ATM): 1 to 100 nM | IC50 (DNA-PK): 0.5 to 1 nM
Structure (SMILES): COC[C@H]1C[C@]2(C1)C(=O)N(C)c1cnc3cc(F)c(-c4cnc(OCCNC(C)C)c(NS(C)(=O)=O)c4)cc3c12 [Example 404, cis-N-(5-(7′-Fluoro-3-(methoxymethyl)-3′-methyl-2′-oxo-2′,3′-dihydrospiro[cyclobutane-1,1′-pyrrolo[2,3-c]quinolin]-8′-yl)-2-(2-(isopropylamino)ethoxy)pyridin-3-yl)methanesulfonamide]

IC50 (ATM): 1 to 100 nM | IC50 (DNA-PK): 0.5 to 1 nM
Structure (SMILES): CCOC[C@H]1C[C@]2(C1)C(=O)N(C)c1cnc3cc(F)c(-c4cnc(OCCNC(C)C)c(NS(C)(=O)=O)c4)cc3c12 [Example 406, cis-N-(5-(3-(Ethoxymethyl)-7′-fluoro-3′-methyl-2′-oxo-2′,3′-dihydrospiro[cyclobutane-1,1′-pyrrolo[2,3-c]quinolin]-8′-yl)-2-(2-(isopropylamino)ethoxy)pyridin-3-yl)methanesulfonamide]

IC50 (ATM): 1 to 100 nM | IC50 (DNA-PK): < 0.5 nM
Structure (SMILES): CC(C)NCCOc1ncc(-c2cc3c(cc2F)ncc2c3[C@]3(C[C@H](COC(C)C)C3)C(=O)N2C)cc1NS(C)(=O)=O [Example 410, cis-N-(5-(7′-Fluoro-3-(isopropoxymethyl)-3′-methyl-2′-oxo-2′,3′-dihydrospiro[cyclobutane-1,1′-pyrrolo[2,3-c]quinolin]-8′-yl)-2-(2-(isopropylamino)ethoxy)pyridin-3-yl)methanesulfonamide]
